From US5594024A, “Centrally actig substituted phenylazacycloalkanes” (priority 1995, dated 1997)
Read-outs that look alike come from different tables or passages of the source.

Columns and labels:
[1] = test system: S-(-)-34-induced hypermotility; experiment: Blockade of S-(-)-34-induced hypermotility in habituated rats; type: in vivo, rat; conditions: for effect on S-(-)-34-induced hypermotility: habituated rats, S-(-)-34 50 μmol/kg s.c.
Procedure: It was shown that S-(-)-34-induced hypermotility in habituated rats is blocked by haloperidol, raclopride, reserpine and alpha-methyl-para tyrosine. […] The test compounds were administered consecutively at the same time.
The catecholamine synthesis inhibitor alpha-methyl-para-tyrosine (Sigma, alpha-MT;100 mg/kg, i.p.) was administered 60 minutes before […] ([…], s.c.).

habituated rats = experiment: Locomotor activity and behavior in habituated rats; type: in vivo, rat (male Sprague-Dawley); conditions: habituated rats
Procedure: (§1) Footnotes Table 3. The rats were habituated to the motility meters 60 min
prior to the activity session.
(§2) Injection volumes were 5 mL/kg.
Locomotor activity was measured in rats which were habituated 60 minutes to the activity meters before drug injection. The activity was measured for the subsequent 60 minutes and expressed as % of controls (means ±SEM, n=4).

5-HT1A = molecular target: T1, 5-HT1A (Rattus norvegicus, UniProt P19327); experiment: 5-HT1A radioligand binding ([3H]-8-OH-DPAT); set-up: species or system rat (male Sprague-Dawley); conditions: [3H]-8-OH-DPAT, rat cortex; read-out: in vitro binding IC50, 5HT1A
T1 construct: the whole brain with the exception of the brainstem and cerebellum was rapidly removed; from tissue
T1 sequence (P19327 1-422): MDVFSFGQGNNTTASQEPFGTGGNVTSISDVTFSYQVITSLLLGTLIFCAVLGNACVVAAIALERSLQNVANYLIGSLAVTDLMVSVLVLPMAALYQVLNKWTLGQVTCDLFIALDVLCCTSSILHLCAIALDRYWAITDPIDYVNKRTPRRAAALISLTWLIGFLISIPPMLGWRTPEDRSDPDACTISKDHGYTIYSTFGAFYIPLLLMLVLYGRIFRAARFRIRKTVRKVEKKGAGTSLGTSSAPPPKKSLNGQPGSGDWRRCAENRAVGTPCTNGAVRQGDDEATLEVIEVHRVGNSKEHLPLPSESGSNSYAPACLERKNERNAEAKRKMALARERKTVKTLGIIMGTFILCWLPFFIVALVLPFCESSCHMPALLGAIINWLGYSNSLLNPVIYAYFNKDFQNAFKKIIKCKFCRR
Procedure: ^b Serotonin 5HT1A ([^3 H]-8OH-DPAT, agonist) rat cortex.
5-HT1A radioligand binding. Male Sprague-Dawley rats (160-225 g) were killed by decapitation and the whole brain with the exception of the brainstem and cerebellum was rapidly removed, weighed and chilled in ice-cold 0.9% NaCl. Each brain was homogenized (Ultra-Turrax, 20 s) in 10 mL ice-cold 50 mM Tris buffer (pH 8.0 at 25° C.) containing 120 mM NaCl, 4 mM CaCl2 and 4 mM MgCl2 and centrifuged at 20,000 g's at 4° C. for 10 minutes. Pellets were resuspended in 10 mL fresh buffer and preincubated for 10 minutes in a 37° C. waterbath and then recentrifuged. Final pellets were homogenized in 100 volumes (w/v) of Tris buffer (as described above) containing 10 μM pargyline. The incubation tubes were kept on ice in triplicates and received 100 μL drug solution in water (or water for total binding) and 1000 μL membrane suspension (corresponds to 10 mg original tissue). The binding experiment was initiated by addition of 100 μL of (3H)-8-OH-DPAT (specific activity 143-158 Ci/mmol) in ascorbic acid (the final incubation concentration was 1 nM (3H)-8-OH-DPAT in 0.1% ascorbic acid). After incubation for 15 minutes at 37° C. the reaction was terminated by separation of the free radioligand from bound by rapid vacuum filtration using a cell harvester equipment (O. M. Teknik, Denmark). The tubes were rinsed with 4 mL and the filters (Whatman GF/F 25 mm) were washed twice with 4 mL ice-cold 0.9% NaCl.
The radioactivity of the filters was measured in a liquid scintillation counter (efficiency 41%) in 5 mL Picofluor®. Specific binding (70-75% of total binding) was defined as the radioactivity displaced by 10 μM 5-HT. IC50 values were calculated by semi-log plot and linear regression analysis.

DA receptor [2] = experiment: DA metabolism (DOPAC, HVA levels) in habituated rats; type: in vivo, rat (male Sprague-Dawley); conditions: Rattus norvegicus, 1 h; for response vs control in vivo at 6.2 µmol/kg: 6.2 μmol/kg sc; for response vs control in vivo at 25 µmol/kg: 25 μmol/kg sc
Procedure: as §1
The rats were immediately killed after the activity session, striata
(§3) and limbic levels of DOPAC and 5HIAA were measured by means of HPLCEC. *p
(§4) In the experiments with habituated rats no NSD was administered and the animals were killed one hour after drug administration. […] The levels were expressed as % of controls (DOPAC and 5-HIAA see Table 3). The in vivo brain microdialysis experiments were performed in conscious rats as described by Waters et al., Eur. J. Pharm., 187, 425-34 (1990).
as §2
After the activity session the rats were killed and the brain levels of HVA and DOPAC were measured (data are expressed as means ±SEM).

D2 receptors = molecular target: T2, D2 receptors (Rattus norvegicus, UniProt P61169); experiment: D2 antagonist binding ([3H]-spiperone), rat striatum; conditions: [3H]-spiperone, rat striatum; read-out: in vitro binding IC50, D2 -spip
T2 construct: Preparation of rat striatal membranes for (3H)-spiperone; from tissue; host or cells: rat striatum (striatal membranes)
Procedure: D2 antagonist binding. Preparation of rat striatal membranes for (3H)-spiperone (specific activity 21-24 Ci/mmol) binding was carried out in a similar manner as described for D1-binding, Hyttel et al., J. Neural. Transm., 68, 171 (1987).
IC50 values were calculated by semi-log plot and linear regression analysis.

5-HT receptor [3] = experiment: 5-HT metabolism (5-HIAA levels) in habituated rats; type: in vivo, rat (male Sprague-Dawley)
Procedure: as §1
SEM. The rats were immediately killed after the activity session, striata
as §3, §4
Injection volumes were 5 mL/kg. […]

DA receptor [4] = experiment: DOPA accumulation (DA synthesis rate) in non-pretreated rats after NSD 1015; conditions: 100 sc
Procedure: injected with NSD 1015 (100 mg/kg, i.p.) and then killed 30 min later.
In-vivo determination of rat brain monoamine metabolites and tyrosine and tryptophan hydroxylation (biochemically monitored DA and 5-HT receptor agonist or antagonist activity).
The compounds under evaluation were tested biochemically for central DA and 5-HT receptor (pre- and/or postsynaptic) stimulating and/or blocking activity. The concept of this biochemical screening method is that a DA or 5-HT receptor agonist will stimulate the receptor and through regulatory negative feed-back systems induce a decline in tyrosine or tryptophan hydroxylating activity, respectively, and a subsequent reduction in the synthesis rate of DA and 5-HT in the presynaptic neuron. […] The biochemical experiments and the determinations of Dopa and 5-HTP by means of HPLC with electrochemical detection were performed. The antagonistic effects were seen as increases in the synthesis rate (n=4), as a result of the positive feed-back upregulation of synthesis. The effects on Dopa and 5-HTP accumulation are expressed as % of controls, which were: DOPA limbic system=447±23 ng/g and DOPA striatum=1045±47ng/g, 5-HTP limbic region 241±2 ng/g (Table 2).
(§5) Animals used in the biochemical and motor activity experiments were male rats of the Sprague-Dawley strain (ALAB, Sollentuna, Sweden), weighing 200-300 g. The rats were kept 5 per cage with free access to water and food (except for the starved animals for the experiments with per oral administration, who were only allowed water the last 18 hours before testing), at least one week from arrival until used in the experiments.
(§6) All substances to be tested were dissolved in saline immediately before use, occasionally with the addition of a few drops of glacial acetic acid and/or moderate heating in order to obtain complete dissolution. Injection volumes were 5 mL/kg.
Analysis of variance (ANOVA) followed by Fischer's test was used for the statistical calculations. P values less than 0.05 were regarded statistically significant.
DOPA accumulation (DA synthesis rate) in non-pretreated rats (Table 2). After the locomotor activity session (see Table 2, above) the rats were injected with the decarboxylase inhibitor NSD 1015 (100 mg/kg, sc) and killed 30 minutes later. The DOPA accumulation in the DA -rich limbic and striatal and the NE-rich cortical (mainly hemispheres) brain areas were expressed as % of saline treated controls.
DOPA accumulation, time course after s.c. and p.o. administration (Table 2). […] NSD 1015 (100 mg/kg, sc) was injected 30 minutes before death. The data are expressed as % of saline treated controls.

5-HT receptor [5] = experiment: 5-HTP accumulation (5-HT synthesis rate) in non-pretreated rats after NSD 1015; type: in vivo, rat (male Sprague-Dawley); conditions: 100 sc
Procedure: observations are commented to the right. After the session the rats were
accumulation in the NErich cortical regions and 5HTP in the limbic
as §2

non-pretreated rats = experiment: Locomotor activity and gross behavior in non-habituated (non-pretreated) rats; conditions: 100 sc, non-pretreated rats; for Motor Act.: 30 min
From the text: Immediately after drug administration, the rats were placed in the test cages (one rat/cage) and put into the motility meters. […] Observations of gross behavior were made throughout the activity sessions through semi-transparent mirrors.
as §5, §6
Analysis of variance (ANOVA) followed by Fischer's test was used for the statistical calculations.
In vivo behavioral data was obtained with rats injected with drug and 5 minutes later put into the motility chambers for the first time. The motor activity was measured for the subsequent 30 minutes (accumulated counts/30 minutes) and expressed as % of saline treated controls.

[6] = test system: d-amphetamine-induced hyperactivity; experiment: d-Amphetamine-induced hyperactivity in habituated rats; type: in vivo, rat; conditions: d-amphetamine 5.0 mg/kg, sc
[7] = Rattus norvegicus, 1 h, 100 μmol/kg sc, 60 min, read-out: Motor Activity
[8] = 100 μmol/kg sc, habituated rats, read-out: DOPAC limbic
[9] = 100 μmol/kg sc, habituated rats, read-out: DOPAC striatum
[10] = habituated rats, read-out: DOPAC limbic
[11] = habituated rats, read-out: DOPAC striatum

T2 sequence (P61169 whole entry): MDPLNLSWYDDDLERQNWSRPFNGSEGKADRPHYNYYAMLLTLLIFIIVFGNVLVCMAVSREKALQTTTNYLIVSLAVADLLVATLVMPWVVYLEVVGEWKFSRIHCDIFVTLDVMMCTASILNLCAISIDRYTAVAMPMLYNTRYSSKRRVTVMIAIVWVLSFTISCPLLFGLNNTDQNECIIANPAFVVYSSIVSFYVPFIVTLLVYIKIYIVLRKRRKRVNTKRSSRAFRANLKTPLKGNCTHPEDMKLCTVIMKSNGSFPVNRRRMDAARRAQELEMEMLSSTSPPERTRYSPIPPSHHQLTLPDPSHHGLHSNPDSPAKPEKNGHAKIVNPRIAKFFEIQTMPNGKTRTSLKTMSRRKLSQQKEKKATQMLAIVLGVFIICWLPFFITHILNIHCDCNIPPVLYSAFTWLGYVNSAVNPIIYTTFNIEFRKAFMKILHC

## O=C(CCCN1CCC(O)(c2ccc(Cl)cc2)CC1)c1ccc(F)cc1 [haloperidol]
[1]
  effect on S-(-)-34-induced hypermotility: blocked

## CCN1CCC[C@H]1CNC(=O)c1c(O)c(Cl)cc(Cl)c1OC [raclopride]
[1]
  effect on S-(-)-34-induced hypermotility: blocked

## CC(N)(Cc1ccc(O)cc1)C(=O)O (stereo not drawn) [alpha-MT, alpha-methyl-para-tyrosine]
[1]; 100 mg/kg, i.p.
  motor activity, compound alone: did not affect the motor activity
[1]; alpha-MT 100 mg/kg, i.p., 60 minutes before
  effect on locomotor stimulation produced by S-(-)-34: partially inhibited the locomotor stimulation
[1]
  effect on S-(-)-34-induced hypermotility: blocked

## C=Cc1cccc([C@@H]2CCCN(CCC)C2)c1 [Compound S-41, S-3-(3-Vinylphenyl-N-n-propyl)piperidine]
Habituated rats; 100 μmol/kg sc
  Behavioral observations: Activation
Habituated rats; [7]
  response vs control in vivo at 100 µmol/kg: 529 ± 204%
5-HT1A
  IC50: 460 nM
DA receptor [2]; sc, read-out: DOPAC limbic
  response vs control in vivo at 100 µmol/kg: 136 ± 15%
DA receptor [2]; sc, read-out: DOPAC striatum
  response vs control in vivo at 100 µmol/kg: 134 ± 13%
D2 receptors
  IC50: 3500 nM
5-HT receptor [3]; 100 μmol/kg sc
  5-HIAA limbic: 92 ± 14 % of saline treated controls

## CCCCN1CCC[C@@H](c2cccc(OS(=O)(=O)C(F)(F)F)c2)C1 [S-(-)-16, S-(-)-3-((3-(Trifluoromethyl)sulfonyl)oxyphenyl-N-n-butyl)-piperidine]
Habituated rats; 100 μmol/kg sc
  Behavioral observations: Activation
Habituated rats; [7]
  response vs control in vivo at 100 µmol/kg: 345 ± 39%
5-HT1A
  IC50: 1300 nM
DA receptor [2]; [8]
  response vs control in vivo at 100 µmol/kg: 186 ± 2%
DA receptor [2]; [9]
  response vs control in vivo at 100 µmol/kg: 192 ± 4%
DA receptor [4]
  DOPA acc Cortex: 89 ± 9 % of saline controls
  DOPA acc Stratium: 234 ± 10 % of saline controls
5-HT receptor [5]
  5-HTP acc Limbic Region: 82 ± 5 % of saline controls
non-pretreated rats
  Gross Behavioral Observations: No change
  Motor Act.: 116 ± 21 % of saline controls
D2 receptors
  IC50: 1300 nM
5-HT receptor [3]; 100 μmol/kg sc
  5-HIAA limbic: 109 ± 4 % of saline treated controls

## COC(=O)[C@H]1[C@H]2C[C@@H]3c4[nH]c5cc(OC)ccc5c4CCN3C[C@H]2C[C@@H](OC(=O)c2cc(OC)c(OC)c(OC)c2)[C@@H]1OC [reserpine]
[1]
  effect on S-(-)-34-induced hypermotility: blocked
[1]; reserpine 5 mg/kg, 18 h before, S-(-)-34 50 μmol/kg, sc
  effect on locomotor stimulation produced by S-(-)-34: completely prevented the locomotor stimulation

## C=CCN1CCC[C@@H](c2cccc(OS(=O)(=O)C(F)(F)F)c2)C1 [Compound S-17, S-3-((3-(Trifluoromethyl)sulfonyl)oxyphenyl-N-allyl)piperidine]
Habituated rats; 100 μmol/kg sc
  Behavioral observations: Activation
Habituated rats; [7]
  response vs control in vivo at 100 µmol/kg: 195 ± 13%
5-HT1A
  IC50: 4200 nM
DA receptor [2]; [8]
  response vs control in vivo at 100 µmol/kg: 159 ± 18%
DA receptor [2]; [9]
  response vs control in vivo at 100 µmol/kg: 222 ± 12%
D2 receptors
  IC50: 28000 nM
5-HT receptor [3]; 100 μmol/kg sc
  5-HIAA limbic: 93 ± 6 % of saline treated controls

## CCCN1CCC[C@@H](c2cccc(OS(=O)(=O)C(F)(F)F)c2)C1 [S-(-)-15, S-(-)-3-((3-(Trifluoromethyl)sulfonyl)oxyphenyl-N-n-propyl)-piperidine]
Habituated rats; 6.2 μmol/kg sc
  Behavioral observations: No change
Habituated rats; 6.2 μmol/kg sc, 60 min
  Motor Activity: 91 ± 94 % of saline treated controls
Habituated rats; 25 μmol/kg sc
  Behavioral observations: No change
Habituated rats; 100 μmol/kg sc
  Behavioral observations: Activation
Habituated rats; Rattus norvegicus, 1 h, 25 μmol/kg sc, 60 min, read-out: Motor Activity
  response vs control in vivo at 25 µmol/kg: 128 ± 33%
Habituated rats; [7]
  response vs control in vivo at 100 µmol/kg: 445 ± 131%
5-HT1A
  IC50: 2300 nM
DA receptor [2]; [10]
  response vs control in vivo at 6.2 µmol/kg: 134 ± 10%
  response vs control in vivo at 25 µmol/kg: 145 ± 11%
DA receptor [2]; [11]
  response vs control in vivo at 6.2 µmol/kg: 118 ± 10%
  response vs control in vivo at 25 µmol/kg: 175 ± 8%
DA receptor [2]; [8]
  response vs control in vivo at 100 µmol/kg: 196 ± 16%
DA receptor [2]; [9]
  response vs control in vivo at 100 µmol/kg: 217 ± 3%
D2 receptors
  IC50: 1600 nM
5-HT receptor [3]; 6.2 μmol/kg sc
  5-HIAA limbic: 139 ± 9 % of saline treated controls
5-HT receptor [3]; 25 μmol/kg sc
  5-HIAA limbic: 126 ± 5 % of saline treated controls
5-HT receptor [3]; 100 μmol/kg sc
  5-HIAA limbic: 140 ± 11 % of saline treated controls

## CN1CCC[C@@H](c2cccc(OS(=O)(=O)C(F)(F)F)c2)C1 [S-(+)-13, S-(+)-3-((3-(Trifluoromethyl)sulfonyl)oxyphenyl-N-methyl)-piperidine]
Habituated rats; 100 μmol/kg sc
  Behavioral observations: No change
Habituated rats; [7]
  response vs control in vivo at 100 µmol/kg: 135 ± 14%
5-HT1A
  IC50: 2800 nM
DA receptor [2]; [8]
  response vs control in vivo at 100 µmol/kg: 138 ± 10%
DA receptor [2]; [9]
  response vs control in vivo at 100 µmol/kg: 172 ± 11%
D2 receptors
  IC50: 71000 nM
5-HT receptor [3]; 100 μmol/kg sc
  5-HIAA limbic: 109 ± 2 % of saline treated controls

## C[C@H](N)Cc1ccccc1 [d-amphetamine, reference compound]
[6]
  activity of habituated rats, d-amphetamine alone: 871±68 % of NaCl controls

## CCN1CCC[C@@H](c2cccc(OS(=O)(=O)C(F)(F)F)c2)C1 [S-(-)-14, S-(-)-3-((3-(Trifluoromethyl)sulfonyl)oxyphenyl-N-ethyl)-piperidine]
Habituated rats; 100 μmol/kg sc
  Behavioral observations: Activation
Habituated rats; [7]
  response vs control in vivo at 100 µmol/kg: 404 ± 205%
5-HT1A
  IC50: 1300 nM
DA receptor [2]; [8]
  response vs control in vivo at 100 µmol/kg: 223 ± 39%
DA receptor [2]; [9]
  response vs control in vivo at 100 µmol/kg: 293 ± 29%
DA receptor [4]
  DOPA acc Cortex: 80 ± 4 % of saline controls
  DOPA acc Stratium: 286 ± 33 % of saline controls
5-HT receptor [5]
  5-HTP acc Limbic Region: 76 ± 9 % of saline controls
non-pretreated rats
  Gross Behavioral Observations: No change
  Motor Act.: 103 ± 19 % of saline controls
D2 receptors
  IC50: 7100 nM
5-HT receptor [3]; 100 μmol/kg sc
  5-HIAA limbic: 98 ± 33 % of saline treated controls
